Assays:
[1] = test system: T. cruzi epimastigotes (CL Brener clone); experiment: Growth inhibition of T. cruzi epimastigotes; format: cell-based, Trypanosoma cruzi; settings: free base
[2] = test system: bloodstream form T. brucei (strain 427); experiment: Trypanocidal assay, growth inhibition of cultured bloodstream-form T. brucei; format: cell-based, Trypanosoma brucei; settings: for times higher activity than C-methyl analogue 7c / times higher activity than the parent 7a: free base form
[3] = test system: Bloodstream-form T. brucei; settings: cited from earlier work
[4] = test system: procyclic (insect form) T. brucei; experiment: Activity against cultured procyclic; format: cell-based, Trypanosoma brucei

CN1CC(=O)N(CC(=O)NO)C(=O)C12C1CC3CC(C1)CC2C3 (stereo not shown) [7b]
fold more potent against T. cruzi than 7a [1]: 1.5 fold | fold lower potency of hydrochloride versus free base ([2]; bloodstream-form T. brucei): 1.8 fold | fold decrease in activity against T. brucei compared with 7a ([2]; free base, bloodstream form): 2.1 fold

CC(N)C12CC3CC(CC(C3)C1)C2 (stereo not shown) [rimantadine]
IC50 ([3]; read-out: IC50 bloodstream-form T. brucei, in vitro): 7 µM

O=C(CN1C(=O)C(Cc2ccccc2)NC2(C1=O)C1CC3CC(C1)CC2C3)NO (stereo not shown) [compound 8]
times more resistant: procyclic versus bloodstream-form T. brucei [4]: 10–50 fold | times higher activity than C-methyl analogue 7c ([2]; bloodstream form): 8–20 fold | times higher activity than the parent 7a ([2]; bloodstream form): 5.3–13 fold

CN1CC(=O)N(CC(=O)NO)C(=O)C12CCCCCCC2 [9b]
fold more potent against T. brucei than 9a ([2]; free base, bloodstream form): 1.9 fold

O=C(CN1C(=O)CNC2(CCCCCC2)C1=O)NO [10a]
fold decrease in activity against T. brucei compared with 7a ([2]; free base, bloodstream form): 21 fold

O=C1CNC2(C(=O)N1)C1CC3CC(C1)CC2C3 (stereo not shown) [6a]
inhibition of parasite growth, preliminary screen ([2]; 5 μg mL^–1, bloodstream-form T. brucei): inactive

O=C(CN1C(=O)[C@H](Cc2ccccc2)NC2(C1=O)C1CC3CC(C1)CC2C3)NO (stereo partly shown) [7d]
fold more potent against T. cruzi than 7a [1]: 26 fold | times more resistant: procyclic versus bloodstream-form T. brucei [4]: 10–50 fold | fold lower potency of hydrochloride versus free base ([2]; bloodstream-form T. brucei): 6.2 fold | times higher activity than C-methyl analogue 7c ([2]; bloodstream form): 8–20 fold | times higher activity than the parent 7a ([2]; bloodstream form): 5.3–13 fold | factor less potent than 7e (R-enantiomer) ([2]; tested as hydrochloride salts): 4.6 fold | factor less potent than 8 (racemic mixture) ([2]; tested as hydrochloride salts): 2.3 fold

C[C@@H]1NC2(C(=O)N(CC(=O)NO)C1=O)C1CC3CC(C1)CC2C3 (stereo partly shown) [7c]
fold lower potency of hydrochloride versus free base ([2]; bloodstream-form T. brucei): 3 fold | fold decrease in activity against T. brucei compared with 7a ([2]; free base, bloodstream form): 1.5 fold

CN1CC(=O)N(CC(=O)NO)C(=O)C12CCCCCC2 [10b]
times more potent against T. brucei than 10a ([2]; free base, bloodstream form): 6.6 fold

O=C1ON=C2C3CC4CC(C3)CC12C4 [compound 3]
potency fold greater than amantadine ([3]; T. brucei in vitro): at least 45 fold

O=C(CN1C(=O)[C@@H](Cc2ccccc2)NC2(C1=O)C1CC3CC(C1)CC2C3)NO (stereo partly shown) [7e]
times more resistant: procyclic versus bloodstream-form T. brucei [4]: 10–50 fold | times higher activity than C-methyl analogue 7c ([2]; bloodstream form): 8–20 fold | times higher activity than the parent 7a ([2]; bloodstream form): 5.3–13 fold

C[C@@H]1NC2(CCCCCCC2)C(=O)N(CC(=O)NO)C1=O [9c]
fold more potent against T. brucei than 9a ([2]; free base, bloodstream form): 2.4 fold

O=C(CN1C(=O)[C@H](Cc2ccccc2)NC2(CCCCCCC2)C1=O)NO [9d]
fold more potent against T. brucei than 9a ([2]; free base, bloodstream form): 10 fold | times more trypanocidal activity than C-methyl counterpart 9c ([2]; free base, bloodstream form): 4.3 fold

O=C(CN1C(=O)CNC2(CCCCCCC2)C1=O)NO [9a]
fold decrease in activity against T. brucei compared with 7a ([2]; free base, bloodstream form): 3.3 fold

— publication PMC3140774 (Journal of Medicinal Chemistry, 2011)
